Laboratory results reported in publication PMC12024234, “Antioxidant, Anti-Inflammatory, and Oral Bioavailability of Novel Sulfonamide Derivatives of Gallic Acid” (Antioxidants, 2025).
“Also recorded” adds a separate entry of the source. Each block holds one molecule with its values, some of them ahead of it.

Legend:
CYP2D6 [1] = molecular target: T1, CYP2D6 (Homo sapiens, UniProt P10635); experiment: Metabolism by cytochrome P450 2D6 (CypExpress), HPLC; type: in vitro ADME; details: 4 h
T1 construct: purchased Sigma Aldrich C4982
T1 sequence (P10635 whole entry): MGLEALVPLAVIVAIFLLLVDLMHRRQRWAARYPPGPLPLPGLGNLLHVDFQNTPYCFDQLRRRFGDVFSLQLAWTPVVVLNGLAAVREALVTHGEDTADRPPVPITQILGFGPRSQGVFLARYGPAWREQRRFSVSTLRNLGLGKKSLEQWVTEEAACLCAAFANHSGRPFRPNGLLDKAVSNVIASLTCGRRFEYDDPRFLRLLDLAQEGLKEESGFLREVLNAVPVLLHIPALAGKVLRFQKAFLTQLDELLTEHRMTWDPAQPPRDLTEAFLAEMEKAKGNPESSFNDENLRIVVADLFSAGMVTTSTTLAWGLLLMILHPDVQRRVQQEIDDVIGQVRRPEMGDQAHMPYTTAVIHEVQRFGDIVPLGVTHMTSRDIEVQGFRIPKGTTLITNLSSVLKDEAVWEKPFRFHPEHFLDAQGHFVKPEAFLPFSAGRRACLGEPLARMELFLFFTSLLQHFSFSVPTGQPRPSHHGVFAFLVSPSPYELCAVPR
Protocol: The enzymatic activity of cytochrome P450 2D6 (CYP2D6) was evaluated following the CypExpress protocol (C4982, Sigma Aldrich, Darmstadt, Germany). The reaction buffer consisted of 5 mM glucose-6-phosphate (G6P), 2 mM nicotinamide adenine dinucleotide phosphate (NADP+), and 3,4,5-TMBS prepared in PBS at concentrations of 1000 and 1500 µM. Diltiazem was used as a positive control. The reaction was initiated by adding CYP2D6, and the mixture was vortexed for 5 min. The samples were then incubated at 37 °C with gentle shaking at 100 rpm for 4 h. The reaction was terminated by adding acetonitrile, followed by centrifugation at 800 rpm for 10 min. The supernatant was collected and analyzed using HPLC.

CYP2D6 [2] = molecular target: T1, CYP2D6; experiment: as above; type: in vitro ADME
[3] = Oral bioavailability / pharmacokinetics in rats; type: in vivo, Sprague Dawley rats; details: rat serum; for Tmax: rat, serum, po
Protocol: Male Sprague Dawley rats, aged 7–9 weeks and weighing 220 ± 20 g on average, were used for bioavailability studies. The animals were housed in the Laboratory Animal Research Unit at the University of Petra Pharmaceutical Center under controlled conditions: a temperature of 23 ± 2 °C, humidity of 55–65%, and a 12 h light/dark cycle. Prior to the experiments, the rats underwent a 10-day acclimatization period with free access to standard food and water. All procedures complied with the University of Petra’s animal use guidelines, which adhere to the standards of the Federation of European Laboratory Animal Sciences Association (FELASA). The rats were divided into three groups (n = 6 per group) and administered suspensions of GA, 3,4,5-TMBS, or 3,4,5-THBS prepared in 5% carboxymethylcellulose. Each compound was administered orally at a dose of 100 mg/kg, based on previous studies. Blood samples were collected from the retro-orbital plexus at 0.5, 1, 2, 3, 4, 6, 10, and 24 h post-administration. The samples were centrifuged at 5000 rpm for 10 min, and the serum was mixed with acetonitrile in a 1:3 ratio. After a second centrifugation at 5000 rpm for 15 min, the supernatant was collected for high-performance liquid chromatography (HPLC) analysis. HPLC analysis was conducted using a Shimadzu Class VP series system equipped with an LC-10AT VP pump, an SIL-10AD VP autosampler, and an SCL-10AVP system (Shimadzu, Kyoto, Japan). A C18 column (25 cm × 4.6 mm, 5 μm) was used, with a photodiode array detector set to a wavelength range of 200–400 nm. The mobile phase for TMBS and THBS consisted of a 50:50 (v/v) mixture of deionized water and acetonitrile containing 0.1% trifluoroacetic acid, flowing at 1 mL/min. For GA, the mobile phase was a 70:30 mixture of methanol and a water/sulfuric acid solution (100:2), also at a flow rate of 1 mL/min. The retention times for THBS and TMBS were 2.39 and 3.47 min, respectively, while GA eluted at 2.4 min, all detected at 254 nm. Results were analyzed using Lab Solution Software LC (version 5.3) and represent the average of three measurements.

HIEC-6 cells = experiment: Cell viability CCK-8 assay in HIEC-6; type: cell-based, Human; details: 24 h incubation
Protocol: Human intestinal epithelial cells (HIEC-6), originally obtained from the American Type Culture Collection (ATCC), were cultured in Opti-MEM™ I Reduced Serum Medium (Cat. No. 31985) supplemented with 20 mM HEPES, 10 mM L-glutamine, 10 ng/mL epidermal growth factor, and 4% fetal bovine serum (FBS) (New York, NY, USA). Cells were maintained in a humidified 5% CO2 incubator at 37 °C. Cell viability was assessed using the CCK-8 assay, a colorimetric method based on the reduction of water-soluble tetrazolium salts (WST-8) to a water-soluble formazan dye, with the resulting color intensity proportional to the number of viable cells. Briefly, cells were harvested at approximately 80% confluence, detached using trypsin-EDTA, and centrifuged at 1000 rpm for 5 min. The cell pellet was resuspended in fresh medium, and the density was adjusted to 1 × 10^6 cells/mL. A volume of 100 µL (1 × 10^5 cells/well) was seeded into a 96-well plate, with one well containing the medium only as background control. […] Subsequently, 10 µL of CCK-8 reagent was added to each well, and the plate was incubated for 4 h. Absorbance was measured at 450 nm using a microplate reader, results are expressed as the mean ± standard deviation (SD).

COX-2 = molecular target: T2, COX-2 (Homo sapiens, UniProt P35354); experiment: Cyclooxygenase (COX-2) activity assay in HIEC-6 cell lysate; type: biochemical
T2 construct: endogenous in cells; host or cells: HIEC-6 cell lysate
T2 sequence (P35354 18-604): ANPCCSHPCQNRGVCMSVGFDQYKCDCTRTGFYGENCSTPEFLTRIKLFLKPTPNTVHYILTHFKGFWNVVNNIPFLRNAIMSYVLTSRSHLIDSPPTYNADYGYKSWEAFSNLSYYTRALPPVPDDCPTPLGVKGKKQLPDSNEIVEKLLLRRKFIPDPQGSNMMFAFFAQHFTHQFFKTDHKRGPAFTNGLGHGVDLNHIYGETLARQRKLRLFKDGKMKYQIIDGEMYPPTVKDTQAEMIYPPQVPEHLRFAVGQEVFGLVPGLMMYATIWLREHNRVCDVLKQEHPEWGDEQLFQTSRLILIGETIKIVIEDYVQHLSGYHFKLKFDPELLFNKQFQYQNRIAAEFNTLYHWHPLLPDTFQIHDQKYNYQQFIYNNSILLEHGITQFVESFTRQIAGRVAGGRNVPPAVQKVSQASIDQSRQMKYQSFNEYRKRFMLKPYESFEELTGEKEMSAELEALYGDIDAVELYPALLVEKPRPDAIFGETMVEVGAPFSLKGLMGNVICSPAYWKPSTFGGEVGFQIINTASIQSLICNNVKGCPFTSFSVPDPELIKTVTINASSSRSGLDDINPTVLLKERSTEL
Protocol: Cyclooxygenase (COX-2) activity assay was performed in HIEC-6 cells according to the manufacturer’s instructions (ab204699). Resorufin standards (0–20 pmol/well) were used to generate a calibration curve for quantifying sample concentrations. HIEC-6 cells were centrifuged at 500× g for 3 min and washed with PBS. The cell pellet was lysed in an ice-cold lysis buffer containing 10% Triton X-100 and a protease inhibitor cocktail in PBS for 5 min. The lysate was then centrifuged at 12,000× g for 3 min at 4 °C, and the supernatant was collected and kept on ice. Protein concentration in the supernatant was determined using a Bradford assay, with a bovine serum albumin standard curve (0–2000 µg/mL). […] This mixture was added to a 96-well plate, and the reaction was initiated by adding arachidonic acid (COX-2 substrate) dissolved in NaOH solution. The enzymatic reaction produced fluorescent resorufin dye, which was measured at excitation/emission wavelengths of λEx/Em = 535/587 nm.

[4] = DPPH radical scavenging assay
Protocol: The antioxidant properties of the compounds under study were examined using the 2,2-Diphenyl-1-picrylhydrazyl (DPPH) assay, following a well-established protocol. A DPPH solution was prepared at a concentration of 0.1 mM in methanol. […] To ensure proper reaction, the mixtures were kept in the dark and incubated at room temperature for 30 min. After incubation, the absorbance of each sample was measured at 517 nm using a UV-VIS spectrophotometer. Gallic acid was used as the reference standard, and methanol served as the blank control.
The ability of the compounds to scavenge free radicals was determined by observing the reduction of DPPH at 517 nm, with lower absorbance values indicating higher antioxidant activity. The half-maximal inhibitory concentration (IC50), defined as the concentration of the compound needed to neutralize 50% of the DPPH radicals, was calculated from the dose–response curve. All experiments were performed in triplicate, and the results are reported as the mean of three independent trials. This method is widely recognized for its reliability and reproducibility in evaluating the antioxidant potential of chemical compounds.

[5] = male, Sprague Dawley, 100 mg/kg, n = 6

Metabolism by CYP2D6 (concentration) (CYP2D6 [1]; 1000 µM): 849.91 ± 0.62 µM
Metabolism by CYP2D6 (concentration) (CYP2D6 [1]; 1500 µM): 1235 ± 6.02 µM
Metabolism by CYP2D6 (concentration) (CYP2D6 [2]; 1000 µM, 1 h): 828 ± 21.7 µM
Metabolism by CYP2D6 (concentration) (CYP2D6 [2]; 1000 µM, 3 h): 829 ± 78.1 µM
Metabolism by CYP2D6 (concentration) (CYP2D6 [2]; 1500 µM, 1 h): 1287 ± 12.8 µM
Metabolism by CYP2D6 (concentration) (CYP2D6 [2]; 1500 µM, 3 h): 1460 ± 133 µM
SMILES: COc1ccc([C@@H]2Sc3ccccc3N(CCN(C)C)C(=O)[C@@H]2OC(C)=O)cc1 [Diltiazem, reference compound]

SMILES: O=C(O)c1cc(O)c(O)c(O)c1 [GA, 3,4,5-trihydroxybenzoic acid, reference compound]
Cmax ([3]; male, Sprague Dawley, 100 mg/kg (table: 100 mg dose), n = 6): 2140 ± 880 ng/mL
AUC(0-inf) [3, 5]: 13000 ± 5620 ng·h/mL
AUC(0-t) [3, 5]: 9320 ± 4610 ng·h/mL
CL/F [3, 5]: 148 mL/min/kg
half-life [3, 5]: 3.6 ± 0.94 h
MRT inf ([3]; male, Sprague Dawley, 100 mg/kg, n = 6, read-out: MRT0–∞): 7.66 ± 2.99 h
Tmax ([3]; male, Sprague Dawley, 100 mg/kg): 1.3 h
Tmax [3, 5]: 1.3 ± 0.22 h
Vz ([3]; 100 mg/kg, n = 6): 55.46 ± 23.99 (mg)/(μg/mL)
IC50 (HIEC-6 cells): 47.6 ± 2.39 µM
IC50 (HIEC-6 cells; Homo sapiens, HIEC-6, 24 h): ~47 µM
COX-2 inhibition compared to ibuprofen (COX-2; 1 µM): weaker COX-2 inhibition than ibuprofen
COX-2 inhibition compared to ibuprofen (COX-2; 50 µM): low COX-2 inhibition effect; also recorded: weaker COX-2 inhibition than ibuprofen
EC50 [4]: ~30 µM
DPPH radical scavenging activity ([4]; at 1000 µM): exceeding 90%
ROS scavenging activity ([4]; at 1000 µM (abstract)): 96%
